Results on 6 molecules are retold here after US20100144779A1, “Marine Alkalod Makaluvamines and Derivatives Thereof” (THE UAB RESEARCH FOUNDATION, priority 2007, published 2010).

One assay deals with T1, topoisomerase II (Homo sapiens, UniProt P11388).
T1 construct: purchased TopoGEN, Inc., Port Orange, Fla
In words: Topoisomerase II drug screening kit (relaxation of plasmid DNA). In kind it is biochemical. Particulars: for Topoisomerase II Inhibition: 100 μM drug compound, topoisomerase II (4U), 500 ng plasmid DNA; for inhibition of topoisomerase II catalytic activity (in words): 100 μM makaluvamine derivative. On the set-up: key to Topoisomerase II Inhibition: — none; + low; ++ moderate; +++ strong. The source says:
In order to determine the effect of the makaluvamine derivatives of the present disclosure, the synthesized makaluvamine derivatives were screened for their ability to inhibit topoisomerase II activity in vitro. Topoisomerase II functions by generating a double-stranded DNA break followed by resealing of the break. Topoisomerase II inhibitors interfere with the breakage-rejoining reaction thereby trapping the enzyme in a cleavage complex. In order to determine if the disclosed makaluvamine derivatives inhibited topoisomerase II activity, nine of the derivatives were tested for topoisomerase II inhibitory activity using a topoisomerase-II drug screening kit (TopoGEN, Inc., Port Orange, Fla.) according to the manufacturer's instructions. The screening kit uses a supercoiled plasmid DNA substrate (pRYG) which contains one topoisomerase II cleavage/recognition site. […] Relaxed DNA was separated using non-ethidium bromide (EtBr) agarose gels, then stained with EtBr and quantified using Kodak Gel Logic Imaging System and Molecular Imaging software (Eastman Kodak Co., Rochester, N.Y.). Inhibition of relaxation of plasmid DNA or catalytic activity was reported as; − none, + low, ++ moderate, or +++ strong.

Another assay concerns MDM2. In words: Protein expression, Western blot in MCF-7 cells. Particulars: for expression of MDM2: 1 μM, 6 h (FIG. 4A). The assay is classed as cell-based, human. The protocol: (§1) In FIG. 4A, MCF-7 cells were exposed to 1 μM concentration of the indicated compounds for 6 hours. Western blots were probed with antibodies specific for the proteins indicated. Numbers below each lane show densitometry readings for each lane as compared to control. […] Western blots were probed with antibodies specific for the proteins indicated.
(§2) To determine the disclosed compounds effect on protein expression in human breast cancer cells, cultured MCF-7 cells were exposed to various concentrations of the test compounds for 6 h (FIG. 4A) or 24 h (FIG. 4B). Cell lysates were fractionated with identical amounts of protein by SDS-PAGE and transferred to Bio-Rad trans-Blot nitrocellulose membranes (Bio-Rad Laboratories, Hercules, Calif.). The nitrocellulose membrane was incubated in blocking buffer (Tris-buffered saline containing 0.1% Tween 20 and 5% nonfat milk) for 1 h at room temperature, then with the appropriate primary antibody overnight at 4° C. or 2 h at room temperature with gentle shaking. Finally, the membrane was washed three times with the washing buffer (Tris-buffered saline containing 0.1% Tween 20) for 15 min, incubated with goat anti mouse/rabbit IgG-horseradish peroxidase-conjugated antibody (Bio-Rad) for 1 h at room temperature, and washed again (in triplicate). The protein of interest was detected by enhanced chemiluminescence reagents from PerkinElmer LAS, Inc (Boston, Mass.).

The next assay has as its system p21. In words: Protein expression, Western blot in MCF-7 cells. The assay is classed as cell-based, human. Particulars: 1 μM, 6 h (FIG. 4A). As for the experimental part:
as §1, §2

In the next assay the test system is p53. In words: Protein expression, Western blot in MCF-7 cells. Particulars: 1 μM, 6 h (FIG. 4A). The assay is classed as cell-based, human. The protocol:
as §1, §2

For assay [1], the system named is different cancer cell lines. Description: Induction of apoptosis (annexin V-FITC). In kind it is cell-based, human. The note with it: annexin V-FITC/PI; 0.1-25 μM, 48 hr; effect in the 1-10 μM range. The protocol:
Cells in early and late stages of apoptosis were detected with an annexin V-FITC apoptosis detection kit from BioVision (Mountain View, Calif.). In brief, cells were exposed to the test compounds (0, 0.1, 1, 10, 25 μM) and incubated for 48 hr prior to analysis. Media and cells were collected and washed with serum-free media. Cells were then re-suspended in 500 μL of Annexin V binding buffer followed by addition of 5 μL Annexin VFITC and 5 μL of propidium iodide (PI). The samples were incubated in the dark for 5 min at room temperature prior to analysis. […] Cells that were positive for Annexin V-FITC alone (early apoptosis) and Annexin V-FITC and PI (late apoptosis) were counted.

The subject of another assay is MCF7. In words: Cell cycle progression (propidium iodide, flow cytometry). The note with it: 48 hr; for G1 / G2/M / S: MCF7. In kind it is cell-based, human. As for the experimental part: (§3) To determination of the effects of the disclosed compounds on the cell cycle, 2-3×10^5 cells were exposed to the test compounds (0-5 μM) and incubated for 48 hr prior to analysis (Table 6). Cells were trypsinized, washed with PBS and fixed in 1.5 mL 95% ethanol at 4° C. overnight, followed by incubation with RNAse and staining with propidium iodide (Sigma). The DNA content was determined by flow cytometry.

In another assay the test system is HCT116. Described as above. In kind it is cell-based, human. The note with it: 48 hr; for G1 / G2/M / S: HCT116. The protocol:
as §3

The next assay concerns HCT-116 p53 −/−. Described as above. In kind it is cell-based, human. The note with it: 48 hr; for G1 / G2/M / S: HCT-116 p53 −/−. As for the experimental part:
as §3

The next assay has as its system cleaved PARP. Description: Protein expression, Western blot in MCF-7 cells. The note with it: 24 h (FIG. 4B). In kind it is cell-based, human. The protocol: (§4) In FIG. 4A, MCF-7 cells were exposed to 1 μM concentration of the indicated compounds for 6 hours. Western blots were probed with antibodies specific for the proteins indicated. Numbers below each lane show densitometry readings for each lane as compared to control. In FIG. 4B, MCF-7 cells were exposed to the indicated concentration of compound 28 and incubated for 24 hours. Western blots were probed with antibodies specific for the proteins indicated.
as §2

The test system of the next assay is E2F1. Description: Protein expression, Western blot in MCF-7 cells. The note with it: 24 h (FIG. 4B). In kind it is cell-based, human. The protocol:
as §4, §2

The subject of the next assay is cdc25c. Description: Protein expression, Western blot in MCF-7 cells. The assay is classed as cell-based, human. Particulars: 24 h (FIG. 4B). As for the experimental part: as §4, §2
In a further assay the test system is cdc2. In words: Protein expression, Western blot in MCF-7 cells. The assay is classed as cell-based, human. Particulars: 24 h (FIG. 4B). The protocol: as §4, §2

T1 sequence (P11388 whole entry): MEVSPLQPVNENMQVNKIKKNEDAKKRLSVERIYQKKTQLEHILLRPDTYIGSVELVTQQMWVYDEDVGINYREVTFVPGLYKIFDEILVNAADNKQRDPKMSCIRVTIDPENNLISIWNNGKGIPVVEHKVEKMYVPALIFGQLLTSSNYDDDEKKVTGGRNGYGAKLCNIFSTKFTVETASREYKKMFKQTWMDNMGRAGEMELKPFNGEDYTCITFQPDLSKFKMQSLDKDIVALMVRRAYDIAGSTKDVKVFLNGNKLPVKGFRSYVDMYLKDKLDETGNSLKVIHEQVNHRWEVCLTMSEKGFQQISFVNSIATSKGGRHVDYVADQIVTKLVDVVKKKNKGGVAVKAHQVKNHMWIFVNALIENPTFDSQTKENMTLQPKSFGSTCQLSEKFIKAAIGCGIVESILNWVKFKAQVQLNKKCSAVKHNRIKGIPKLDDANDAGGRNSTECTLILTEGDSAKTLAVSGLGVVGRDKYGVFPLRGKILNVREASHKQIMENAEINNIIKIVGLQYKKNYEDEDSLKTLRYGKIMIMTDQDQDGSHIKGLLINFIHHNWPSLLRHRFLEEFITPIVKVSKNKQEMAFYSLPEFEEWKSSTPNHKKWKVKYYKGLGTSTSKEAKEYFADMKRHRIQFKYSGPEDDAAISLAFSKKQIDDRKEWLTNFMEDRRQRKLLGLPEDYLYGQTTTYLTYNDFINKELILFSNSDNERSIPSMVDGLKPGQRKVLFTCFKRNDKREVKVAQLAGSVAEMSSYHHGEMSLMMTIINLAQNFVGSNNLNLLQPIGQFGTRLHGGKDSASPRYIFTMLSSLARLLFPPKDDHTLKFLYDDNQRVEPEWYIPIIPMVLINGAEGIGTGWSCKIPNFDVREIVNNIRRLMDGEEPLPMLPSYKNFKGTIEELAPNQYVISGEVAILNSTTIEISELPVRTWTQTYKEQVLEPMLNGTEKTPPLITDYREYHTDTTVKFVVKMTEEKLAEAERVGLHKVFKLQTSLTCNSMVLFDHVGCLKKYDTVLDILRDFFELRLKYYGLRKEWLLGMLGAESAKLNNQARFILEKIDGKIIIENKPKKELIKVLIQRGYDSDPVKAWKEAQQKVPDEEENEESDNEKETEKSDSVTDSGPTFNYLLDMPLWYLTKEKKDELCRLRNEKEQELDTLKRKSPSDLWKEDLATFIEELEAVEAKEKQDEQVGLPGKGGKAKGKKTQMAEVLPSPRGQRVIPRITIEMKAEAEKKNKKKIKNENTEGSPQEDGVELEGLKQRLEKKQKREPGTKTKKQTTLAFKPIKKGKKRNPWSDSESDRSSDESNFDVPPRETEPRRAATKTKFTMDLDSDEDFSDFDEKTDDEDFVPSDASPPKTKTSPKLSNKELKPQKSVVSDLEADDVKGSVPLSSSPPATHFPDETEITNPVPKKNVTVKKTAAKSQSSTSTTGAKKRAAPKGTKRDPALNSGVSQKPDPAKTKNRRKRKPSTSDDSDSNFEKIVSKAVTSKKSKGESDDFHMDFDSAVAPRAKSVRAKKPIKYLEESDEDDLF

For `CNC1=CC2=NCCc3c[nH]c(c32)C1=O` [Compound 4a], the “Topoisomerase II Inhibition” value at topoisomerase II is “—”.
Take `O=C1C(NCc2ccccc2)=CC2=NCCc3c[nH]c1c32` [Compound 4c]: on topoisomerase II, the “Topoisomerase II Inhibition” value is “++”; the “inhibition of topoisomerase II catalytic activity (in words)” value was “comparable to etoposide and m-AMSA”. Besides, in the assay with MDM2, the “expression of MDM2” value is on record as “inhibited the expression”. Moreover, the “expression of p21” value in the assay with p21 is listed as “decreased the expression”. Besides, the “expression of p53” value with p53 is on record as “increased the expression”. Besides, the induction of apoptosis entry in assay [1] is given as “significant induction of apoptosis”.
Turning to `O=C1C(NCCc2ccccc2)=CC2=NCCc3c[nH]c1c32` [Compound 4d], on topoisomerase II, the “Topoisomerase II Inhibition” value is given as “+”; the “inhibition of topoisomerase II catalytic activity (in words)” value was “comparable to etoposide and m-AMSA”. Besides, the “expression of MDM2” value in the assay with MDM2 was “increased the expression”. Besides, the “expression of p21” value in the assay with p21 is “increased the expression”. The “expression of p53” value in the assay with p53 is given as “increased the expression”.
`O=C(O)C(F)(F)F.O=C1C(NCCc2ccc3c(c2)OCO3)=CC2=NCCc3c[nH]c1c32` [Compound 6]: the “expression of p53” value in the assay with p53 was “increased the expression”.
For the molecule `COc1ccc(CCNC2=CC3=NCCc4c[nH]c(c43)C2=O)cc1OC.O=C(O)C(F)(F)F` [Compound 20], the “expression of MDM2” value with MDM2 was “inhibited the expression”. The “expression of p21” value with p21 is reported as “decreased the expression”. The “expression of p53” value in the assay on p53 is given as “decreased the expression”.
Regarding `O=C(O)C(F)(F)F.O=C1C(NCc2ccc(F)cc2)=CC2=NCCc3c[nH]c1c32` [Compound 28], the G1 with MCF7 (0.1 μM) is 75.10; with MCF7 (0.5 μM), 51.97; with MCF7 (1 μM) it was 53.96; with HCT116 (0.5 μM), 31.82; in the assay on HCT116 (1 μM) it was 28.40; with HCT-116 p53 −/− (0.5 μM) it was 28.18. The same molecule returned a G1 in the assay with HCT-116 p53 −/− (1 μM) of 25.59. The G2/M with MCF7 (0.1 μM) is reported as 17.53; in the assay with MCF7 (0.5 μM), 20.17; in the assay on MCF7 (1 μM), 16.21; in the assay with HCT116 (0.5 μM), 45.04; with HCT116 (1 μM), 38.17; with HCT-116 p53 −/− (0.5 μM) it was 49.02. Also, in the assay on HCT-116 p53 −/− (1 μM), the G2/M turned out to be 45.20. The S in the assay on MCF7 (0.1 μM) is given as 7.37; in the assay on MCF7 (0.5 μM), 27.86; with MCF7 (1 μM) it was 29.82; with HCT116 (0.5 μM) it was 23.14; in the assay with HCT116 (1 μM) it was 33.43; in the assay on HCT-116 p53 −/− (0.5 μM), 22.80. This molecule registered a S in the assay on HCT-116 p53 −/− (1 μM) of 29.21. Also, the cell cycle arrest entry was “cell cycle arrest in the S phase” in the assay on MCF7 (breast cancer (MCF-7), dose-dependent, 0-5 μM); “cell cycle arrest in the S and G2/M phase” with HCT116 (colon cancer HCT116, dose-dependent); “cell cycle arrest in the S and G2/M phase” in the assay on HCT-116 p53 −/− (colon cancer HCT116 p53−/−, dose-dependent). The “expression of MDM2” value in the assay with MDM2 is “inhibited the expression”. In addition, in the assay with MDM2 (24 h (FIG. 4B)), the “expression level of MDM2” value is “decreased”. The “expression of p21” value with p21 was “decreased the expression”. Also, the “expression of p53” value with p53 is recorded as “decreased the expression”. Besides, the “expression of cleaved PARP” value in the assay with cleaved PARP is recorded as “increased expression”. Also, the “expression level of E2F1” value in the assay on E2F1 is given as “decreased”. The “expression level of cdc25c” value in the assay on cdc25c is recorded as “decreased”. Further, the “expression level of cdc2” value in the assay with cdc2 is on record as “decreased”. Besides, in [1], the induction of apoptosis entry is “significant induction of apoptosis”.
